Reference: US11479551B2, “MTA-cooperative PRMT5 inhibitors” (Mirati Therapeutics, Inc., priority 2019, dated 2022)
Where two headings read alike, the source gives them in different places.

What was measured:
PRMT5/MEP50 complex = PRMT5/MEP50 complex (Homo sapiens (Human), UniProt O14744); test: PRMT5:MEP50 HotSpot Assay (full-length histone H2A substrate, plus and minus MTA); type: biochemical
In short: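 Tritium incorporated into recombinant full-length histone H2A was counted by scintillation after stopped reactions were captured on filter paper.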

HCT116 parental cells = test: Proliferation assay (CellTiter-Glo, 10 days of treatment), HCT116 parental; type: cell-based; conditions: Homo sapiens, HCT-116, 240 h
Protocol: (§1) Control samples were analyzed in parallel.
Briefly, on Day 0, 250 HCT116 parental or HCT116 homozygous MTAP knockout cell were seeded in 96 well plates in McCoy's 5A supplemented with 10% fetal bovine serum and pen/strep and the cells were incubated overnight at 37° C. plus 5% CO2.
The following day, cells were treated with DMSO vehicle control or a dose response of PRMT5 inhibitors and incubated at 37 C plus 5% CO2 for five days. On Day 6, the cells were trypsinized and split 1:10 into new 96-well plates with fresh medium containing the same concentration of PRMT5 inhibitor and incubated for an additional 5 days at 37° C. plus 5% CO^2.
On Day 11, the viability of the cells was measured using a CTG assay kit (CellTiter-Glo; Promega cat.no G7573) in accordance with the manufacturer's instructions. The IC50 values for each compound after 10 days of treatment were calculated using GraphPad PRISM software.

[1] = test system: HCT116 homozygous MTAP knockout cells; test: Proliferation assay (CellTiter-Glo, 10 days of treatment), HCT116 MTAP knockout; type: cell-based; conditions: Homo sapiens, HCT-116, 240 h, read-out: Proliferation HCT116MTAP_KO IC50
In short: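 Viability of the CRISPR/Cas9 homozygous MTAP-knockout HCT116 line was read by CellTiter-Glo after 10 days of PRMT5 inhibitor exposure, with IC50 derived from the dose response. Compound was given the day after seeding and renewed at an identical concentration when cells were split 1:10 on day 6.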

[2] = test system: PRMT5-dependent Symmetric Di-methyl Arginine signal in HCT116 parental cells; test: SYM11 In-Cell Western, HCT116 parental; type: cell-based; conditions: Homo sapiens, HCT-116, 96 h, 4 days of treatment, SYM11/DRAQ5 ratio
Protocol: as §1
Briefly, on Day 0, 2,000 HCT116 parental or HCT116 homozygous MTAP knockout cells were seeded in 96 well plates in McCoy's 5A supplemented with 10% fetal bovine serum and pen/strep and the cells were incubated overnight at 37° C. plus 5% CO2. The following day, cells were treated with DMSO vehicle control or a dose response of PRMT5 inhibitors, and incubated at 37° C. plus 5% CO^2 for four days.
After 4 days of treatment, the cells were fixed by adding 50 μl of 4% paraformaldehyde solution to each well and the cells were incubated for 20 min at room temperature. The paraformaldehyde solution was removed, 150 μl of ice-cold methanol was added and the plate was placed −20° C. for 10 minutes. The methanol was removed, 150 μl of Odyssey Blocking buffer+0.05% Tween20 was added and the plate was incubated at room temperature with shaking for one hour.
The primary SYM11 antibody solution was removed by aspiration and the wells were washed three consecutive times with phosphate buffered saline containing 0.1% Tween-20 (PBST).
The secondary antibody solution was removed by aspiration and the wells were washed three consecutive times with PB ST.
The SYM11 signal and the DRAQ5 signal were quantified using a Li-Cor Odyssey machine reading at […], respectively. The SYM11/DRAQ5 ratio was used to calculate the inhibition of Symmetric Dimethyl Arginine as percent of DMSO control.

[3] = test system: PRMT5-dependent Symmetric Di-methyl Arginine signal in HCT116 homozygous MTAP knockout cells; test: SYM11 In-Cell Western, HCT116 MTAP knockout; type: cell-based; conditions: Homo sapiens, HCT-116, 96 h, HCT116 homozygous MTAP knockout cells, 4 days of treatment, SYM11/DRAQ5 ratio; read-out: In-cell-Western (SYM11) HCT116 MTAP_KO IC50
[4] = IC50 + 2 μM MTA, in the presence of 2 μM MTA

Chain of PRMT5/MEP50 complex (O14744 2-637): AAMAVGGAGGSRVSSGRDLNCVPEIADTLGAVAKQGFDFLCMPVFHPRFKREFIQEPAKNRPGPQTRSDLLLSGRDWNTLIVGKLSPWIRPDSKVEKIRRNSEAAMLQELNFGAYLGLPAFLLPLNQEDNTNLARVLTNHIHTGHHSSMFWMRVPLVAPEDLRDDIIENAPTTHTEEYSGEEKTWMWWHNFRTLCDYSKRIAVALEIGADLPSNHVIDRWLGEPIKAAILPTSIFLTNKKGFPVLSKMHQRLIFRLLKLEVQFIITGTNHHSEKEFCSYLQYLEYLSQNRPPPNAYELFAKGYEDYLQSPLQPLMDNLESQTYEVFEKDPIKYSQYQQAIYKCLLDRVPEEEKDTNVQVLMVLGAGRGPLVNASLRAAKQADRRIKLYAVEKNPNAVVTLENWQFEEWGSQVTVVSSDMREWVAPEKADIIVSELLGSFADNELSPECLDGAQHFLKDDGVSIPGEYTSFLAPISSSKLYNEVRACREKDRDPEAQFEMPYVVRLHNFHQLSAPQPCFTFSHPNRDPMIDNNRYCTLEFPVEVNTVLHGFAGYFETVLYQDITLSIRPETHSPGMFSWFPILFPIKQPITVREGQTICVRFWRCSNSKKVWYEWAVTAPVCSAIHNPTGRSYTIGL
Chain of PRMT5/MEP50 complex (Q9BQA1 2-342 partner): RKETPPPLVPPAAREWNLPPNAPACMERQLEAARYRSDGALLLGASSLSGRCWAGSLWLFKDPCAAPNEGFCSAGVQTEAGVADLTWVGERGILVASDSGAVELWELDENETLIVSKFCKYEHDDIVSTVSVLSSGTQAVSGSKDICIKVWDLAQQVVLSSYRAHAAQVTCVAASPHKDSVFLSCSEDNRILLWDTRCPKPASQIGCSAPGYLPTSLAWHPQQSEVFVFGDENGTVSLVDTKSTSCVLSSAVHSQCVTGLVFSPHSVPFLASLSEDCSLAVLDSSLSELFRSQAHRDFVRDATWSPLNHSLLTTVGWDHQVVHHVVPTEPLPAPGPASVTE

IC50 (PRMT5/MEP50 complex; [4])	IC50 [1]	IC50 [3]	IC50 (PRMT5/MEP50 complex; in the absence of MTA, read-out: IC50)	Structure (SMILES)	IC50 (HCT116 parental cells)	IC50 [2]
1890 nM	847 nM	43 nM	–	Cc1cc(C#N)c(-c2c(-c3ccc4c(=O)[nH]nc(CN)c4c3)cnn2C)cc1C [Example 4-131, 2-(4-(4-(aminomethyl)-1-oxo-1,2-dihydrophthalazin-6-yl)-1-methyl-1H-pyrazol-5-yl)-4-5-dimethylbenzonitrile]	> 10000 nM	3250 nM
2560 nM	595 nM	24 nM	–	Cc1cc(-c2c(-c3ccc4c(=O)[nH]nc(CN)c4c3)cnn2C)c(C#N)cc1Cl [Example 4-132, 2-(4-(4-(aminomethyl)-1-oxo-1,2-dihydrophthalazin-6-yl)-1-methyl-1H-pyrazol-5-yl)-5-chloro-4-methylbenzonitrile]	> 10000 nM	> 10000 nM
641 nM	3760 nM	31 nM	–	CC(C)c1ccc(-c2c(-c3ccc4c(=O)[nH]nc(CN)c4c3)cnn2C)cc1 [Example 4-135, 4-(aminomethyl)-6-(5-(4-isopropylphenyl)-1-methyl-1H-pyrazol-4-yl)phthalazin-1(2H)-one]	6610 nM	3210 nM
1230 nM	1490 nM	254 nM	–	Cn1ncc(-c2ccc3c(=O)[nH]nc(CN)c3c2)c1-c1ccc2ccccc2c1 [Example 4-139, 4-(aminomethyl)-6-(1-methyl-5-(naphthalen-2-yl)-1H-pyrazol-4-yl)phthalazin-1(2H)-one]	5070 nM	5530 nM
1100 nM	3870 nM	47 nM	–	Cn1ncc(-c2ccc3c(=O)[nH]nc(CN)c3c2)c1-c1ccc(Cl)c(Cl)c1 [Example 4-140, 4-(aminomethyl)-6-(5-(3,4-dichlorophenyl)-1-methyl-1H-pyrazol-4-yl)phthalazin-1(2H)-one]	6810 nM	> 10000 nM
794 nM	2090 nM	88 nM	–	Cn1ncc(-c2ccc3c(=O)[nH]nc(CN)c3c2)c1-c1cc(Cl)cc(Cl)c1 [Example 4-141, 4-(aminomethyl)-6-(5-(3,5-dichlorophenyl)-1-methyl-1H-pyrazol-4-yl)phthalazin-1(2H)-one]	5500 nM	4960 nM
881 nM	1780 nM	49 nM	–	Cn1ncc(-c2ccc3c(=O)[nH]nc(CN)c3c2)c1-c1ccccc1F [Example 4-142, 4-(aminomethyl)-6-(5-(2-fluorophenyl)-1-methyl-1H-pyrazol-4-yl)phthalazin-1(2H)-one]	5740 nM	6270 nM
873 nM	2160 nM	190 nM	–	CCOc1ccc(-c2c(-c3ccc4c(=O)[nH]nc(CN)c4c3)cnn2C)cc1C#N [Example 4-145, 5-(4-(4-(aminomethyl)-1-oxo-1,2-dihydrophthalazin-6-yl)-1-methyl-1H-pyrazol-5-yl)-2-ethoxybenzonitrile]	3770 nM	5490 nM
569 nM	261 nM	40 nM	–	CCOc1cccc(-c2c(-c3ccc4c(=O)[nH]nc(CN)c4c3)cnn2C)c1C#N [Example 4-146, 2-(4-(4-(aminomethyl)-1-oxo-1,2-dihydrophthalazin-6-yl)-1-methyl-1H-pyrazol-5-yl)-6-ethoxybenzonitrile]	> 10000 nM	6690 nM
43 nM	50 nM	11 nM	280 nM	Cn1ncc(-c2ccc3c(=O)[nH]nc(CN)c3c2)c1-c1ccc2ccccc2c1C#N [Example 4-147, 2-(4-(4-(aminomethyl)-1-oxo-1,2-dihydrophthalazin-6-yl)-1-methyl-1H-pyrazol-5-yl)-1-naphthonitrile]	1910 nM	1260 nM
229 nM	307 nM	30 nM	–	Cn1ncc(-c2ccc3c(=O)[nH]nc(CN)c3c2)c1-c1ccc(Cl)c(Cl)c1C#N [Example 4-148, 6-(4-(4-(aminomethyl)-1-oxo-1,2-dihydrophthalazin-6-yl)-1-methyl-1H-pyrazol-5-yl)-2,3-dichlorobenzonitrile]	7750 nM	8550 nM
282 nM	359 nM	135 nM	–	Cn1ncc(-c2ccc3c(=O)[nH]nc(CN)c3c2)c1-c1ccc2ncccc2c1C#N [Example 4-149, 6-(4-(4-(aminomethyl)-1-oxo-1,2-dihydrophthalazin-6-yl)-1-methyl-1H-pyrazol-5-yl)quinoline-5-carbonitrile]	> 10000 nM	6350 nM
673 nM	661 nM	18 nM	–	Cc1cc(Cl)c(C#N)c(-c2c(-c3ccc4c(=O)[nH]nc(CN)c4c3)cnn2C)c1 [Example 4-150, 2-(4-(4-(aminomethyl)-1-oxo-1,2-dihydrophthalazin-6-yl)-1-methyl-1H-pyrazol-5-yl)-6-chloro-4-methylbenzonitrile]	> 10000 nM	8390 nM
606 nM	504 nM	51 nM	–	Cc1ccc(-c2c(-c3ccc4c(=O)[nH]nc(CN)c4c3)cnn2C)c(C#N)c1Cl [Example 4-151, 2-(4-(4-(aminomethyl)-1-oxo-1,2-dihydrophthalazin-6-yl)-1-methyl-1H-pyrazol-5-yl)-6-chloro-5-methylbenzonitrile]	> 10000 nM	5810 nM
1110 nM	2030 nM	944 nM	–	COc1ccc(-c2c(-c3ccc4c(=O)[nH]nc(CN)c4c3)cnn2C)c(C#N)c1 [Example 4-160, 2-(4-(4-(aminomethyl)-1-oxo-1,2-dihydrophthalazin-6-yl)-1-methyl-1H-pyrazol-5-yl)-5-methoxybenzonitrile]	7700 nM	> 10000 nM
707 nM	617 nM	87.5 nM	–	Cn1ncc(-c2ccc3c(=O)[nH]nc(CN)c3c2)c1-c1cc(C2CC2)ccc1C#N [Example 4-161, 2-(4-(4-(aminomethyl)-1-oxo-1,2-dihydrophthalazin-6-yl)-1-methyl-1H-pyrazol-5-yl)-4-cyclopropylbenzonitrile]	6720 nM	6560 nM
3820 nM	> 10000 nM	> 3330 nM	–	N#Cc1ccccc1-c1c[nH]c2ncc(-c3ccc4c(=O)[nH]nc(CN)c4c3)cc12 [Example 4-163, 2-(5-(4-(aminomethyl)-1-oxo-1,2-dihydrophthalazin-6-yl)-1H-pyrrolo[2,3-b]pyridin-3-yl)benzonitrile]	> 10000 nM	> 3330 nM
464 nM	583 nM	93.3 nM	–	Cn1ncc(-c2ccc3c(=O)[nH]nc(CN)c3c2)c1-c1cc(Cl)c(Cl)cc1C#N [Example 4-164, 2-(4-(4-(aminomethyl)-1-oxo-1,2-dihydrophthalazin-6-yl)-1-methyl-1H-pyrazol-5-yl)-4,5-dichlorobenzonitrile]	> 10000 nM	> 10000 nM

Structure (SMILES)	IC50 (PRMT5/MEP50 complex; [4])	IC50 [1]	IC50 [3]	IC50 (PRMT5/MEP50 complex; in the absence of MTA, read-out: IC50)	IC50 (HCT116 parental cells)	IC50 [2]
Cn1ncc(-c2ccc3c(=O)[nH]nc(CN)c3c2)c1-c1cccc(OC2CCC2)c1 [Example 4-137, 4-(aminomethyl)-6-(5-(3-cyclobutoxyphenyl)-1-methyl-1H-pyrazol-4-yl)phthalazin-1(2H)-one]	810 nM	3240 nM	88 nM	–	> 10000 nM	5180 nM
